Laboratory results published in paper PMC6378217, “The lysyl oxidase like 2/3 enzymatic inhibitor, PXS‐5153A, reduces crosslinks and ameliorates fibrosis” (Journal of Cellular and Molecular Medicine, 2018).

Legend:
Dopamine D1 = Dopamine D1 (Homo sapiens, UniProt P21728); assay: Eurofins Hit Profiling Screen; type: binding; settings: 10 μmol/L
Adrenergic β2 = Adrenergic β2 (Homo sapiens, UniProt P07550); assay: Eurofins Hit Profiling Screen; type: binding; settings: 10 μmol/L
Recombinant rat LOXL2 = target: T1, Recombinant rat LOXL2 (Rattus norvegicus, UniProt B5DF27); assay: Amplex-Red fluorometric enzymatic activity assay, recombinant rat LOXL2; type: biochemical; settings: 30 minute pre-incubation; average of at least three experiments
T1 construct: made in house; host or cells: HEK-293 clones provided by Dr. Fernando Rodríguez Pascual
Procedure: (§1) The measurement of the enzymatic activity of all lysyl oxidase family members was based on the detection of hydrogen peroxide with an Amplex‐Red oxidation assay, as described in Zhou et al26 Recombinant human semicarbazide sensitive amine oxidase (SSAO/VAP1), diamine oxidase (DAO) and monoamine oxidases A and B (MAO‐A and MAO‐B) assays were performed as previously described.27 For detailed enzymatic procedures, see supporting information.
(§2) The measurement of the enzymatic activity of all lysyl oxidase family members was based on the detection of hydrogen peroxide with an Amplex-Red oxidation assay, as described in Zhou et al.[1]; miniaturised in 384 well format, with the appropriate combination of substrate and assay buffer for each individual enzyme. After a 30 minute pre-incubation of the enzyme at 37 °C with the test compound (or with different incubation times for the time-dependency assay), one volume of reaction mixture containing 120 μM Amplex Red (AR) (Life Technologies), 1.5 U/mL horseradish peroxidase (HRP) (Sigma-Aldrich) and the specific substrate was added to each sample. The relative fluorescence units (RFU) were then measured every 2.5 minutes for 30 minutes at 37°C, excitation 565 nm and emission 590, on a BMG Clariostar Microplate Reader. […]

[1] = test system: CCl4-induced liver fibrosis; assay: CCl4-induced liver fibrosis; type: in vivo, Sprague Dawley rats
Procedure: Pellet then underwent acid hydrolysis in 6 mol/L HCl at 100°C for 24 hours. Hydroxyproline and crosslinks were extracted from the hydrolysate using an automated solid phase extraction system (Gilson […] system). After extraction and drying, hydroxyproline and crosslinks were analysed by UHPLC-ESI-MS/MS on a Thermo Dionex UHPLC and TSQ Endura triple quad mass spectrometer. Total protein was quantified in the samples using a commercially available kit (QuickZyme Biosciences, Leiden, The Netherlands). For detailed procedures, see supporting information. The study was performed by Pharmalegacy with approval from local ethics committee. […] Animals were killed 48 hours after the last CCl4 administration. […] Alanine aminotransferase (ALT) and aspartate aminotransferase (AST) levels were assessed in the plasma. One lobe of the liver tissue was fixed in 10% formalin, stained for Sirius red and the percentage coverage area was measured. The remainder of the liver was snap frozen and used for protein, hydroxyproline and crosslink analysis.

Imidazoline I2, Central = assay: Eurofins Hit Profiling Screen; type: binding; settings: 10 μmol/L
Histamine H1 = Histamine H1 (Homo sapiens, UniProt P35367); assay: Eurofins Hit Profiling Screen; type: binding; settings: 10 μmol/L
GABAA, Muscimol, Central = assay: Eurofins Hit Profiling Screen; type: binding; settings: 10 μmol/L
[2] = target: Recombinant human semicarbazide sensitive amine oxidase (SSAO/VAP1) (Homo sapiens, UniProt Q16853); assay: SSAO/VAP1 enzymatic activity assay; type: biochemical
Procedure: as §1
Recombinant human semicarbazide sensitive amine oxidase (SSAO/VAP1), diamine oxidase (DAO) and monoamine oxidases A and B (MAO-A and MAO-B) assays were performed as previously described.

Rolipram = assay: Eurofins Hit Profiling Screen; type: binding; settings: 10 μmol/L
Recombinant human LOXL1 = target: T2, Recombinant human LOXL1 (Homo sapiens, UniProt Q08397); assay: Amplex-Red fluorometric enzymatic activity assay, recombinant human LOXL1; type: biochemical; settings: 30 minute pre-incubation; average of at least three experiments
T2 construct: made in house
Procedure: as §1, §2

Phorbol Ester = assay: Eurofins Hit Profiling Screen; type: binding; settings: 10 μmol/L
[3] = target: Serotonin (5-Hydroxytryptamine) 5-HT2B (Homo sapiens, UniProt P41595); assay: Eurofins Hit Profiling Screen; type: binding; settings: 10 μmol/L
[4] = test system: NASH-induced liver disease; assay: NASH-induced liver disease (streptozotocin/high fat diet, STAM); type: in vivo, C57/BL6 mice
Procedure: Pellet then underwent acid hydrolysis in 6 mol/L HCl at 100°C for 24 hours. Hydroxyproline and crosslinks were extracted from the hydrolysate using an automated solid phase extraction system (Gilson […] system). After extraction and drying, hydroxyproline and crosslinks were analysed by UHPLC-ESI-MS/MS on a Thermo Dionex UHPLC and TSQ Endura triple quad mass spectrometer. Total protein was quantified in the samples using a commercially available kit (QuickZyme Biosciences, Leiden, The Netherlands). For detailed procedures, see supporting information. The study was performed by Stelic MC, Inc. (Tokyo, Japan) with approval from local ethics committee. NASH was established in male C57/BL6 mice by a single subcutaneous injection of 200 μg streptozotocin (Sigma-Aldrich) after birth and with a high fat diet (CLEA Japan) ad libitum after 4 weeks of age (day 28 ± 2) until 14 weeks of age. Mice were orally administered with 10 mg/kg PXS-5153A once daily from 8 to 14 weeks of age. ALT levels were assessed in the plasma. One lobe of the liver tissue was fixed in 10% formalin, stained for Sirius red and the percentage coverage area was measured; HE staining was performed to estimate non-alcoholic fatty liver disease (NAFLD) activity score according to the criteria of Kleiner et al28 The remainder of the liver was snap frozen and used for protein, hydroxyproline and crosslink analysis.

Cannabinoid CB1 = Cannabinoid CB1 (Homo sapiens, UniProt P21554); assay: Eurofins Hit Profiling Screen; type: binding; settings: 10 μmol/L
Sequence of Cannabinoid CB1 (P21554 whole entry): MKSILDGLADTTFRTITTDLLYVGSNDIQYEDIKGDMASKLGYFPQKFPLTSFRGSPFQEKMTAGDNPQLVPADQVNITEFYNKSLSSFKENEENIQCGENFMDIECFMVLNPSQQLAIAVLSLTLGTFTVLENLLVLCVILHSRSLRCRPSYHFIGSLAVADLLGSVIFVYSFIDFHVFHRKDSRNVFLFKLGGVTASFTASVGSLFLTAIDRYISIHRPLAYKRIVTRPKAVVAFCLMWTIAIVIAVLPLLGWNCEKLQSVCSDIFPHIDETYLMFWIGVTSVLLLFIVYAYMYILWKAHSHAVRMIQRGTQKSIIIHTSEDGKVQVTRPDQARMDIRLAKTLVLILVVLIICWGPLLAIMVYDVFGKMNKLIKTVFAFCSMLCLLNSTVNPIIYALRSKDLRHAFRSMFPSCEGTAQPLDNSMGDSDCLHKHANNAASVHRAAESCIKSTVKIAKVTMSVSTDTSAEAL

T2 sequence (Q08397 96-574): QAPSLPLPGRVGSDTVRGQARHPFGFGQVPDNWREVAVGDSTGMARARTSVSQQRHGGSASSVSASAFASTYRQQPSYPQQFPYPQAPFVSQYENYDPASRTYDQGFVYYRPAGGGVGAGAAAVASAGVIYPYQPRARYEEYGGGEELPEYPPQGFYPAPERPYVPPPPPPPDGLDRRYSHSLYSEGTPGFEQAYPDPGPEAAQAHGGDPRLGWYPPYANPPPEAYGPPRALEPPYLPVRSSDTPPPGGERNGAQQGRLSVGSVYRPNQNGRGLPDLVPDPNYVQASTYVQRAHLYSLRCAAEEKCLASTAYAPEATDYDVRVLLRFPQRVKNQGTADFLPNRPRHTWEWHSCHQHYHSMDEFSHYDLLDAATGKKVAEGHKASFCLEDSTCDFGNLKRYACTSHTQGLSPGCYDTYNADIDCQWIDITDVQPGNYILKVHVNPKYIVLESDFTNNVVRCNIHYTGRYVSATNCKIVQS
T1 sequence (B5DF27 26-776): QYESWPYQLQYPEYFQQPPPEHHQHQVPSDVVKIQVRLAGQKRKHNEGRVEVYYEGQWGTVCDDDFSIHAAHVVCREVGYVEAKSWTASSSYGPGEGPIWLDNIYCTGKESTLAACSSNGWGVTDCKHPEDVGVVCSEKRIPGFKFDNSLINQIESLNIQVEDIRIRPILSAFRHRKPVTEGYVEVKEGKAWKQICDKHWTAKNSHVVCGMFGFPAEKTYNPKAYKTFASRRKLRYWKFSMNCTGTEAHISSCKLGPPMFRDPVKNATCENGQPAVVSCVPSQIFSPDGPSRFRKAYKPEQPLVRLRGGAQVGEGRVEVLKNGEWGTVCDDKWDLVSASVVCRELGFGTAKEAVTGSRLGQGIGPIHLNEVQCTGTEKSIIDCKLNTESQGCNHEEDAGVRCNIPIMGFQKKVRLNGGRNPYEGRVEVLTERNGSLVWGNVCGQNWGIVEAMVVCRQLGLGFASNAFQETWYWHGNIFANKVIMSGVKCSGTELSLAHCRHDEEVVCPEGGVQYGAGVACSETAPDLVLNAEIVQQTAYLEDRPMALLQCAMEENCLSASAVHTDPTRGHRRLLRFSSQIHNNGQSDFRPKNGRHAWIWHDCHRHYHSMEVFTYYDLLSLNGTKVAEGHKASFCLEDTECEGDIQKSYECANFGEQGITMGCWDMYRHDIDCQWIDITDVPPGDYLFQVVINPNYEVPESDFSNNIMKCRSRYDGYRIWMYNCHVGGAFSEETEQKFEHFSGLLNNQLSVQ
Sequence of Serotonin (5-Hydroxytryptamine) 5-HT2B (P41595 whole entry): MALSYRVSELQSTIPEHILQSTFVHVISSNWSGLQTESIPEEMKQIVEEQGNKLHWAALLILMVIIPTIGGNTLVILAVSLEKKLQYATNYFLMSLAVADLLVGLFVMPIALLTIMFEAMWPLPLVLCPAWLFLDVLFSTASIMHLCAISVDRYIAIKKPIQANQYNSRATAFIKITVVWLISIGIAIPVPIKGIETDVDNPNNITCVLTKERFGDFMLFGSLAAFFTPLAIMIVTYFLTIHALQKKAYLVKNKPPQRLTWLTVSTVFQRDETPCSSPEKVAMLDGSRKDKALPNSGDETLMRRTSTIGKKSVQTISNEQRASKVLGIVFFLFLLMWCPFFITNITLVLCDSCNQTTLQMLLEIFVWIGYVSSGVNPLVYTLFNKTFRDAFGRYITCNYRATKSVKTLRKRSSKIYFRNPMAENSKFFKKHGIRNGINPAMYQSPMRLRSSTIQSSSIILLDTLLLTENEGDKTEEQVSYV
Sequence of Recombinant human semicarbazide sensitive amine oxidase (SSAO/VAP1) (Q16853 whole entry): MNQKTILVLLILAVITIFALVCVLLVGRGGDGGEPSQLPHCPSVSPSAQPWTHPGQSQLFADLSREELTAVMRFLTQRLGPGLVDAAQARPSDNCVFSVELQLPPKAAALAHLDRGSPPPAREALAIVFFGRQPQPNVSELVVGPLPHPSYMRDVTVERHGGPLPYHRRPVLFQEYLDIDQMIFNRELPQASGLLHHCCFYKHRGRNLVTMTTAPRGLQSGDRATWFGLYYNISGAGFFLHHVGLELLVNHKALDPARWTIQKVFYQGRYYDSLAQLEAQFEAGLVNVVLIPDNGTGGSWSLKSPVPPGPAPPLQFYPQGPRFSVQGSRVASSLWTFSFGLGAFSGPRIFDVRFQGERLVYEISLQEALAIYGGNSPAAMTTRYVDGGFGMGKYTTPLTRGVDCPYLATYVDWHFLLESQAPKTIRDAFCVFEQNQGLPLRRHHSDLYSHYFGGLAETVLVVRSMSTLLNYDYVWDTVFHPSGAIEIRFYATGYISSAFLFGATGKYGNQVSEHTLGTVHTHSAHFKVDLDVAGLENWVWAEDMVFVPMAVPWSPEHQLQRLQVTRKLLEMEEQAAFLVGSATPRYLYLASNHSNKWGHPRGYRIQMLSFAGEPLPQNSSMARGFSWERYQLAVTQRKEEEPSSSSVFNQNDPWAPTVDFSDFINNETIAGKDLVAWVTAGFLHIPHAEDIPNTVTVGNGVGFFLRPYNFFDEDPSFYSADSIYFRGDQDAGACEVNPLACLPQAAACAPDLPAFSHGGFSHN
Sequence of Histamine H1 (P35367 whole entry): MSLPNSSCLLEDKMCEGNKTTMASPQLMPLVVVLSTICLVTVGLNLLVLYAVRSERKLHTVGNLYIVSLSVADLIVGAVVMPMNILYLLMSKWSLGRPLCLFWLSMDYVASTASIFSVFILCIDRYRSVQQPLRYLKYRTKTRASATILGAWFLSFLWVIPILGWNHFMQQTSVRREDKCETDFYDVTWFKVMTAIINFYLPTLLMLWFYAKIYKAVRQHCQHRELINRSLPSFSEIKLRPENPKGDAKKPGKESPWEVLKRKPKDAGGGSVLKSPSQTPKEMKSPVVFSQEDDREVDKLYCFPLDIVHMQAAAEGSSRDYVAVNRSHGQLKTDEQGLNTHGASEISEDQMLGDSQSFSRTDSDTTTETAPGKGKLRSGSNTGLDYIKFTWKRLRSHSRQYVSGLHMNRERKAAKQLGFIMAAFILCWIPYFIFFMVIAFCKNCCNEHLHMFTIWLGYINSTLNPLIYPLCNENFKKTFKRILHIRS
Sequence of Adrenergic β2 (P07550 whole entry): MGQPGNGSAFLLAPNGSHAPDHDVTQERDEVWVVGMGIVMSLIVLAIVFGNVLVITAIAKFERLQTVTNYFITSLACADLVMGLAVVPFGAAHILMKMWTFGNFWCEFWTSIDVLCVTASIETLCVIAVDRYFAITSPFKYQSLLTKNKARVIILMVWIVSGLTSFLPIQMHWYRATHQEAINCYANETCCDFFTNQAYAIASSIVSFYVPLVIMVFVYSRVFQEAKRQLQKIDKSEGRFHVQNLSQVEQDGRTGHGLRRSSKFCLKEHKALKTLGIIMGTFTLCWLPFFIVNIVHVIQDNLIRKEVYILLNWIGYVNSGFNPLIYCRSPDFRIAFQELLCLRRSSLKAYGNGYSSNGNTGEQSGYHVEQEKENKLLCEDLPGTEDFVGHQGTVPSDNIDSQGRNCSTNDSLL
Sequence of Dopamine D1 (P21728 whole entry): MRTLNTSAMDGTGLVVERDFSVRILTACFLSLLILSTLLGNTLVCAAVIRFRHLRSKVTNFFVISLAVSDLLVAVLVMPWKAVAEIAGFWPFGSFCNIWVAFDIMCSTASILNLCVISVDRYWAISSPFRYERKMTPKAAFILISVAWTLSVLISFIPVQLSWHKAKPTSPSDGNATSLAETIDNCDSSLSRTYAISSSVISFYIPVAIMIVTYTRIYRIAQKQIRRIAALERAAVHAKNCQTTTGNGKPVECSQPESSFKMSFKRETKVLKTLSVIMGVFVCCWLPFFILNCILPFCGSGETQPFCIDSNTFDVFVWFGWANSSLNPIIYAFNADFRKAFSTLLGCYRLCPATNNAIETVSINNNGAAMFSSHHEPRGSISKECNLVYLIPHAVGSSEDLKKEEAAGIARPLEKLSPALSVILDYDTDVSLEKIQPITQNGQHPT

`Cc1c(-c2cccc(S(=O)(=O)N(C)C)c2)c2ncccc2n1C/C(F)=C/CN.Cl.Cl` [PXS-5153A] was tested, and the “% inhibition” value (Dopamine D1) was 6%, the “% inhibition” value (Adrenergic β2) was -5% and the IC50 (Recombinant rat LOXL2) was 15 nM. For the same compound, the “pIC50 ± SD” value (Recombinant rat LOXL2) was 7.8 ± 0, the “mature crosslink formation (PYD + DPD)” value [1] was “reduced” and the “reduction of HYP content” value ([1]; all dosing regimens) was greater than 30%. For the same compound, the “DHLNL formation” value ([1]; all groups with therapeutic treatment) was “significant reduction”, the “PYD” value ([1]; all groups, only high dose q.d. statistically significant) was “different degrees of reduction” and the “reduction of collagen accumulation (Picrosirius red)” value ([1]; both of the daily dosing groups) was “up to 51%”. For the same compound, the “DHLNL/HYP ratio increase” value ([1]; crosslink normalized relative to hydroxyproline content) was “reversed”, the “DPD crosslinks” value ([1]; high dose q.d. treatment) was “significantly reduced” and the “liver injury, ALT and AST” value ([1]; high dose q.d. treatment compared with the CCl4 treated animals) was “significantly dampened”. For the same compound, the “immature crosslink formation (DHLNL + HLNL)” value ([1]; therapeutic treatment, compared with the CCl4 treated animals) was “substantially reduced”, the “% inhibition” value (Imidazoline I2, Central) was 57% and the “% inhibition” value (Histamine H1) was 23%. For the same compound, the “% inhibition” value (GABAA, Muscimol, Central) was -7%, the IC50 [2] was greater than 30000 nM and the “% inhibition” value (Rolipram) was 28%. The IC50 (Recombinant human LOXL1) was 1410 nM, the “pIC50 ± SD” value (Recombinant human LOXL1) was 5.8 ± 0.23 and the “% inhibition” value (Phorbol Ester) was 2%. The “% inhibition” value [3] was 33%, the “DHLNL” value ([4]; 10 mg/kg orally once daily) was “significantly reduced” and the “NASH disease score (NAFLD activity score)” value ([4]; 10 mg/kg orally once daily) was “reduction”. The “PYD” value ([4]; 10 mg/kg orally once daily) was “significantly reduced”, the “hepatocyte ballooning” value ([4]; 10 mg/kg orally once daily) was “significantly reduced” and the “percentage coverage area by Picrosirius red staining” value ([4]; 10 mg/kg orally once daily) was “reduced”. For the same compound, the “HYP” value ([4]; 10 mg/kg orally once daily from 8 to 14 weeks of age) was “significantly reduction” and the “% inhibition” value (Cannabinoid CB1) was 17%.
